Results reported in patent US20140135319A1, “6-SUBSTITUTED IMIDAZOPYRAZINES FOR USE AS MPS-1 AND TKK INHIBITORS IN THE TREATMENT OF HYPERPROLIFERATIVE DISORDERS” (BAYER INTELLECTUAL PROPERTY GMBH, priority 2010, published 2014).

Molecular target: T1, human kinase Mps-1 (Homo sapiens, UniProt P33981)
T1 construct: N-terminally GST-tagged human full length recombinant Mps-1 kinase; GST (N); purchased Invitrogen, Karslruhe, Germany PV4071
T1 sequence (P33981 1-857): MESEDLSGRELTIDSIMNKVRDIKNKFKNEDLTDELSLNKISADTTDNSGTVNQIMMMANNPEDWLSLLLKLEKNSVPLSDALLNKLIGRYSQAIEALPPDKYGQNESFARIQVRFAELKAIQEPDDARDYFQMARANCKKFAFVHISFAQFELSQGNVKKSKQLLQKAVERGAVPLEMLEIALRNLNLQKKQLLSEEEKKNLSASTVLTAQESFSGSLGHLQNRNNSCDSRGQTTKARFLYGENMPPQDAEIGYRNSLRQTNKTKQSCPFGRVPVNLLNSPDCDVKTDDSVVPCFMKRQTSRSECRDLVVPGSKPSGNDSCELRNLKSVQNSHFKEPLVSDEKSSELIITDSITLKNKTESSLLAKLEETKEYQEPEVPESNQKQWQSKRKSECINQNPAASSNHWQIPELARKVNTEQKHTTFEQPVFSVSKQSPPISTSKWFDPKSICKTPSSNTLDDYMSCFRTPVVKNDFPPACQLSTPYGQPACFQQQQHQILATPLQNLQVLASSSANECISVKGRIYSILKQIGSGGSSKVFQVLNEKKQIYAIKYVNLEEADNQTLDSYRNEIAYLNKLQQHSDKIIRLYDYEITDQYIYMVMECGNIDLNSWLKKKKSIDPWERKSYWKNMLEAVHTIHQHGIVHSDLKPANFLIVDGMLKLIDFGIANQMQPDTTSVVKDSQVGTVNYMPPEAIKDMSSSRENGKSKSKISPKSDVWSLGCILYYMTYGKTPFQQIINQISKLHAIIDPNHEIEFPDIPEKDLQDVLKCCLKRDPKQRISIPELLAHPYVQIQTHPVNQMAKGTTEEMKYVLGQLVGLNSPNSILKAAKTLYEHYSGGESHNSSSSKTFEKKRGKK
Assay: Mps-1 kinase assay (TR-FRET)
Format: biochemical
Settings: GST-tagged human full length recombinant Mps-1; 10 μM ATP; 1 μM peptide substrate; 60 min at 22° C.
In short: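 TR-FRET read-out: after 1 h binding at 22° C, Eu-labelled anti-phospho-Ser/Thr antibody transfers to SA-XLent on the phosphorylated biotinylated peptide. The enzyme is GST-tagged full-length human Mps-1, typically about 1 nM final, in the linear range.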

IC50: 5.6 nM
SMILES: Cn1cc(CNc2nc(-c3ccncc3)cn3c(-c4ccc(C(=O)NC5CC5)cc4)cnc23)cn1 [Example 3-29, N-cyclopropyl-4-[8-{[(1-methyl-1H-pyrazol-4-yl)methyl]amino}-6-(pyridin-4-yl)imidazo [1,2-a]pyrazin-3-yl] benzamide]
